Legend:
Format in all cases: physicochemical
[1] = Absorbance and fluorescence profiles of Compounds 1-4 in pH 7.4 sodium phosphate; details: pH 7.4 sodium phosphate buffer solution; for Absmax / Emmax / ε: 0.1% DMSO; for Φfl: cresyl violet in methanol as fluorescence reference
Method: Absorbance and fluorescence profiles of 2-MeSiR620 (Compound 1) obtained in step (f) and 2-MeSiR620-a1 (Compound 2) obtained in step (i) were measured. Measurements were carried out in an aqueous solution of 0.1M sodium phosphate having a pH 7.4 and containing 0.1% DMSO. The wavelength of the excitation light in the fluorescence profile measurement was 620 nm for 2-MeSiR620 and 635 nm for 2-MeSiR620-a1.
The absorbance and fluorescence spectra of 2-MeSiR630 (Compound 3) synthesized in step (b) and 2-MeSiR630-a1 (Compound 4) synthesized in step (d) were measured. Measurements were carried out in an aqueous solution of 0.1 sodium phosphate having a pH 7.4 and containing 0.1% DMSO. The excitation light in the fluorescence spectrum measurement was 633 nm for 2-MeSiR630 and 648 nm for 2-MeSiR630-a1.

[2] = Optical characteristics of Compound 5 in pH 7.4 sodium phosphate; details: 0.1 sodium phosphate pH 7.4, 0.3% DMSO
Method: The fluorescence wavelength was 665 nm and the wavelength of the excitation light was 637 nm. The measurement was carried out in an aqueous solution of 0.1 sodium phosphate having a pH 7.4 and containing 0.3% DMSO. Cy 5.5 (ΦFl=0.23) in water was used as the fluorescence reference to determine the fluorescence quantum yield.

[3] = Fluorescence quantum yield of Compound 5 in various solvents
[4] = Optical characteristics of dyes in phosphate buffered saline of pH 7.4
[5] = Absorbance and fluorescence of Compound 6 in various solvents
Method: Next, the absorbance and fluorescence spectra of Ac-IndoSiR (Compound 6) in various solvents were measured. […] The excitation wavelength was 540 nm. The maximum absorbance fluorescence wavelength, molar absorbance coefficient, and fluorescence quantum yield of Compound 6 in various solvents are shown in Table 5. The fluorescence quantum yield (ΦFl=0.44; determined using an absolute fluorescence quantum yield measurement device) of Compound 6 in chloroform was used as the fluorescence reference to determine the fluorescence quantum yield in various solvents.

[6] = Optical characteristics / pH profile of Si-Rhodol (Compound 7)
Method: The pH profile of the absorbance and fluorescence spectra of Si-Rhodol (Compound 7) was examined. Measurement was carried out at various pH in 0.1M sodium phosphate solution containing 1% DMSO. The excitation wavelengths were 507 nm (FIG. 13) and 584 nm (FIG. 14).

[7] = Optical characteristics / pH profile of O-Me-Si-Rhodol (Compound 8)
Method: The pH profile of the absorbance and fluorescence spectra of O-Me-Si-Rhodol (Compound 8) was examined. Measurement was carried out at various pH levels in 0.1M sodium phosphate solution containing 10% DMSO. The excitation wavelength was 503 nm.

**Q.** With 2-MeSiR620 [Compound 1] as the compound, how does the Absmax [1] read?
**A.** Its Absmax is 620 nm.

**Q.** And the Emmax [1]?
**A.** The Emmax was 638 nm.

**Q.** What about the ε [1] of the same compound?
**A.** Its ε is 96,000 M^−1cm^−1.

**Q.** And the Φfl [1]?
**A.** Its Φfl is 0.21.

**Q.** For CNc1ccc2c(c1)[Si](C)(C)C1=CC(=[N+](C)C)C=CC1=C2c1ccccc1C [Compound 3, 2-MeSiR630], which Absmax [1] is on record?
**A.** The Absmax was 633 nm.

**Q.** And the Emmax [1]?
**A.** Its Emmax is 649 nm.

**Q.** What about the ε [1] of the same compound?
**A.** Its ε is 120,000 M^−1cm^−1.

**Q.** And the Φfl [1]?
**A.** Its Φfl is 0.11.

**Q.** For Cc1ccccc1C1=C2C=CC(=[N+](C)C)C=C2[Si](C)(C)c2cc(N(C)CCCC(=O)O)ccc21 [Compound 4, 2-MeSiR630-a1], which Absmax [1] is on record?
**A.** The Absmax was 648 nm.

**Q.** What about the Emmax [1] of the same compound?
**A.** The Emmax was 666 nm.

**Q.** What about the ε [1] of the same compound?
**A.** Its ε is 140,000 M^−1cm^−1.

**Q.** What about the Φfl [1] of the same compound?
**A.** The Φfl was 0.30.

**Q.** Which ε [2] does the source give for Cc1ccccc1C1=c2cc3c(cc2[Si](C)(C)c2cc(N)ccc21)=[N+](C)CC3 [Compound 5, 2MeIndoSiR] here?
**A.** Its ε is 54000 M⁻¹ cm⁻¹.

**Q.** What about the λem [2] of the same compound?
**A.** The λem was 665 nm.

**Q.** And the λex [2]?
**A.** Its λex is 641 nm.

**Q.** And the Φfl ([2]; Cy 5.5 in water as reference)?
**A.** Its Φfl is 0.18.

**Q.** And the “Fluorescence quantum yield ΦF1” value ([3]; 20% FBS)?
**A.** The value was 0.36.

**Q.** What about the “Fluorescence quantum yield ΦF1” value ([3]; Acetone) of the same compound?
**A.** The value was 0.39.

**Q.** And the “Fluorescence quantum yield ΦF1” value ([3]; CH3CN)?
**A.** Its value is 0.42.

**Q.** And the “Fluorescence quantum yield ΦF1” value ([3]; CHCl3)?
**A.** Its value is 0.89.

**Q.** And the “Fluorescence quantum yield ΦF1” value ([3]; DMF)?
**A.** Its value is 0.39.

**Q.** What about the “Fluorescence quantum yield ΦF1” value ([3]; DMSO) of the same compound?
**A.** The value was 0.35.

**Q.** And the “Fluorescence quantum yield ΦF1” value ([3]; FBS)?
**A.** The value was 0.35.

**Q.** And the “Fluorescence quantum yield ΦF1” value ([3]; MeOH)?
**A.** The value was 0.46.

**Q.** And the “Φn (absolute fluorescence quantum yield measured using integrating spheres)” value [4]?
**A.** Its value is 0.14.

**Q.** And the λabs. max [4]?
**A.** The λabs. max was 637 nm.

**Q.** What about the λfl. max [4] of the same compound?
**A.** The λfl. max was 664 nm.

**Q.** Which results are given for CC(=O)Nc1ccc2c(c1)[Si](C)(C)c1cc3c(cc1=C2c1ccccc1C)CC[N+]=3C [Compound 6, Ac-IndoSiR]?
**A.** Absmax ([5]; Acetone): 532 nm; Emmax ([5]; Acetone): 641 nm; ΦFl ([5]; Acetone): 0.15; ε ([5]; Acetone): 27,000 M^−1cm^−1; Absmax ([5]; Benzene): 644 nm; Emmax ([5]; Benzene): 665 nm; ΦFl ([5]; Benzene): 0.26; ε ([5]; Benzene): 34,000 M^−1cm^−1; Absmax ([5]; CH2Cl2): 552 nm; Emmax ([5]; CH2Cl2): 641 nm; ΦFl ([5]; CH2Cl2): 0.27; ε ([5]; CH2Cl2): 33,000 M^−1cm^−1; Absmax ([5]; CH3CN): 529 nm; Emmax ([5]; CH3CN): 636 nm; ΦFl ([5]; CH3CN): 0.16; ε ([5]; CH3CN): 29,000 M^−1cm^−1; Absmax ([5]; CHCl3): 623 nm; Emmax ([5]; CHCl3): 652 nm; ε ([5]; CHCl3): 36,000 M^−1cm^−1; ΦFl ([5]; CHCl3, absolute fluorescence quantum yield measurement device): 0.44; Absmax ([5]; DMF): 536 nm; Emmax ([5]; DMF): 645 nm; ΦFl ([5]; DMF): 0.19; ε ([5]; DMF): 9,000 M^−1cm^−1; Absmax ([5]; DMSO): 534 nm; Emmax ([5]; DMSO): 651 nm; ΦFl ([5]; DMSO): 0.12; ε ([5]; DMSO): 30,000 M^−1cm^−1; Absmax ([5]; MeOH): 526 nm; Emmax ([5]; MeOH): 637 nm; ΦFl ([5]; MeOH): 0.10; ε ([5]; MeOH): 27,000 M^−1cm^−1; Absmax ([5]; NaPi buffer (pH 7.4)): 500 nm; Emmax ([5]; NaPi buffer (pH 7.4)): 630 nm; ΦFl ([5]; NaPi buffer (pH 7.4)): 0.06; ε ([5]; NaPi buffer (pH 7.4)): 29,000 M^−1cm^−1; Absmax ([5]; THF): 559 nm; Emmax ([5]; THF): 654 nm; ΦFl ([5]; THF): 0.18; ε ([5]; THF): 21,000 M^−1cm^−1; Absmax ([5]; Toluene): 644 nm; Emmax ([5]; Toluene): 665 nm; ΦFl ([5]; Toluene): 0.31; ε ([5]; Toluene): 32,000 M^−1cm^−1

**Q.** What does the source list for Cc1ccccc1C1=C2C=CC(=O)C=C2[Si](C)(C)c2cc(N)ccc21 [Compound 7, Si-Rhodol]?
**A.** ε ([6]; 0.1M sodium phosphate, 1% DMSO): 40,000 M^−1cm^−1; λem ([6]; 0.1M sodium phosphate, 1% DMSO): 605 nm; absorption maximum (FIG. 14) ([6]; FIG. 14, excitation wavelength 584 nm): ~600 nm; Φfl ([6]; pH: 3.0): 0.28 (pH: 3.0); λabs ([6]; pH: 3.0): 507 (pH: 3.0) nm; Φfl ([6]; pH: 7.4): 0.56 (pH: 7.4); λabs ([6]; pH: 7.4): 584 (pH: 7.4) nm; λabs ([6]; pH: 7.4, listed as Si-Rhodol): ~580 nm

**Q.** Which λabs ([7]; 0.1M sodium phosphate, 10% DMSO) does the source give for COc1ccc2c(c1)[Si](C)(C)C1=CC(=N)C=CC1=C2c1ccccc1C [Compound 8, O-MeSi-Rhodol] here?
**A.** The λabs was 503 nm.

**Q.** What about the λem ([7]; 0.1M sodium phosphate, 10% DMSO, excitation 503 nm) of the same compound?
**A.** The λem was 580 nm.

**Q.** And the λabs ([7]; 0.1M sodium phosphate, 10% DMSO, listed as O-MeSi-Rhodol)?
**A.** The λabs was ~500 nm.

**Q.** What about the “absorption maximum (FIG. 16)” value ([7]; FIG. 16) of the same compound?
**A.** The value was ~600 nm.

**Q.** And the ΦFL ([7]; pH: 3.0)?
**A.** The ΦFL was 0.24 (pH: 3.0).

**Q.** What about the ΦFL ([7]; pH: 7.4) of the same compound?
**A.** Its ΦFL is 0.18 (pH: 7.4).
